Measured values from patent publication US20100158829A1, “Method and Composition for Color Modulation” (Conopco, Inc., d/b/a UNILEVER, priority 2008, published 2010).
pIC50: −log10 of the molar value.

Legend:
mushroom tyrosinase [1] = assay: Mushroom tyrosinase assay with L-dopa; assay type: biochemical; settings: for Mushroom Tyrosinase at 100 μM (% of control): test compound 100 μM, percent of untreated control reaction
Procedure: A stock solution of 10 mM L-dopa (3,4-Dihydroxyphenylalanine, Sigma Cat #D9628) was prepared in sodium phosphate buffer (100 mM, pH 7.0) along with a stock solution of 0.1 mg/mL (605 units/ml) mushroom tyrosinase (Sigma cat #T7755) in phosphate buffer and stored at […] 4° C. until use.
Test compounds (dissolved in DMSO) were first diluted in phosphate buffer to working concentrations of 1 mM. For each test, 150 μL of phosphate buffer, 10 μL of the L-dopa stock and 20 μL of each compound were added to each well of a 96 well clear bottom microtiter plate and mixed three times. 20 μL of mushroom tyrosinase stock solution was added, mixed and the absorbency read at 475 nm at 0, 2, 4, and 6.5 minutes. The points were plotted as absorbency vs. time and the slope of the line calculated. Values are expressed as the percent of the respective untreated control reaction. The final DMSO concentration in each sample was less than or equal to 1.0%

D-dopachrome tautomerase = D-dopachrome tautomerase (Homo sapiens, UniProt P30046); assay: D-dopachrome tautomerase (DDT) enzyme assay with D-dopachrome substrate; assay type: biochemical; settings: for D-Dopachrome Tautomerase at 100 μM (% of control): test compound 100 μM, remaining activity, 100% = inactive; for pIC50: DDT assays similar to those described in Example 2
Chain of D-dopachrome tautomerase (P30046 2-118 limits assumed): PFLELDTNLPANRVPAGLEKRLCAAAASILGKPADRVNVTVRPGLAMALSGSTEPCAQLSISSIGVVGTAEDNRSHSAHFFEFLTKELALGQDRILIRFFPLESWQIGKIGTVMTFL
Procedure: A 125-mM sodium periodate working solution was prepared in H2O in an amber 5-mL vial (prepared fresh on the day of the assay). 4.3 mg of dihydroxy-D-phenylalanine (D-dopa) were weighed into a 20 mL scintillation vial equipped with a pierceable septa screw cap. With the use of a liquid transfer cannula, 12 mL of degassed buffer was first transferred into a 15 mL graduated conical tube and subsequently poured into the scintillation vial containing the D-dopa. The D-dopa was dissolved for ten (10) minutes while stirring under nitrogen. The resulting working solution was 1.8 mM. Once sodium periodate was added to the dissolved D-dopa, the resulting D-dopachrome was utilized immediately to prevent substrate degradation.
Concentrations were based on a final reaction volume of 200 μL. A total of 75 μL of buffer (100 mM potassium phosphate, pH 6.8) was added to each well of a clear flat bottom 96-well microtiter plate. To the blank control wells (no DDT), 25 μL of 10% glycerol/assay buffer was added. DMSO (5 μL) was added to blank wells and to the enzyme control wells (DDT alone with no inhibitors). […] To the remaining wells, 5 μL of test compounds diluted in DMSO was added for a final concentration of 100 μM. Lastly, 25 μL of DDT in assay buffer was added to all wells except for the substrate control wells. The concentration of DDT utilized was such that it produced a ΔOD475 of approximately 1.0 at the 40-second read time point between the blank and total.
With the use of a 1 mL syringe, 0.33 ml of the 125 mM sodium periodate working solution was added to the dissolved D-dopa and stirred for 30 seconds. The resulting D-dopachrome was transferred to a reagent reservoir and 100 μL immediately added to the first row of interest in the assay plate (resulting final substrate concentration in the assay is 0.9 mM). The plate was shaken for 2 seconds on a Spectromax plate reader and the decrease in absorbance measured over 40 seconds. 100 μL of D-dopachrome was added to the next row of interest in the assay plate and this procedure was repeated until four (4) rows were assayed and read. Often approximately 6-7 minutes, the remaining substrate was discarded.
Percent inhibition was calculated utilizing the OD values at the 40-second time point according to the following formula:
• A=percent inhibition of the unknown; • B=average percent inhibition for the 4 positive control values (within 4 distinct assay rows) generated with a single batch of substrate also used to assay the unknown of interest; • C=percent inhibition for the positive control for the assay row of interest which contains the unknown compound of interest.

mushroom tyrosinase [2] = assay: Mushroom tyrosinase assay with L-dopa; assay type: biochemical; settings: Tested at 1 μM
[3] = tested on: Melanoderm tissue equivalent model MEL-300 containing melanocytes; assay: Melanoderm tissue equivalent model, total melanin content; assay type: cell-based; settings: 10 μM in maintenance medium, 14 days
Procedure: Melanoderm™ tissue equivalent model MEL-300 (MatTek: Ashland, Mass.) containing melanocytes obtained from dark skin individuals were cultured as per supplier instructions. Components were added to the maintenance medium phase (no topical treatments) at a final concentration of 10 μM for 14 days at which time the experiment was terminated and the tissues assessed for melanin content. Medium and treatments were changed three times per week. DMSO was utilized as the vehicle control and all treatments were performed in duplicate.
For quantification of total melanin, each Melanoderm was placed into an individual Eppendorf tube (2 mL) into which 250 μL of Solvable™ tissue solubilizer (Packard Bioscience Co., Cat#6NE9100) was added. Each tube was vortexed and incubated at 60° C. for 18 hours. After about […], each sample was centrifuged (5-minutes at 13,000 RPMs) to remove any particulates. One hundred μL of supernatant were transferred to a 96 well microtiter plate and the absorbance read at 490 nm. Total melanin content was calculated from a standard curve using synthetic melanin (Sigma Cat#M8631).
All the following components were tested at a final concentration of 10 μM: […]

## CNC(=O)c1ccccc1NC(=O)c1c(O)nc2c(c1O)CCCC2 [N-(2-(methylcarbamoyl)phenyl)-5,6,7,8-tetrahydro-2,4-dihydroxyquinoline-3-carboxamide]
Mushroom tyrosinase [1]
  Mushroom Tyrosinase at 100 μM (% of control): 100.0% of control
D-dopachrome tautomerase
  D-Dopachrome Tautomerase at 100 μM (% of control): 65.3% of control

## CC(C)CC(C(=O)NC1CCCC1)N(C(=O)c1snc(C(N)=O)c1N)c1cccc(F)c1 (stereo not drawn) [N5-(1-(cyclopentylcarbamoyl)-3-methylbutyl)-4-amino-N5-(3-fluorophenyl)isothiazole-3,5-dicarboxamide]
Mushroom tyrosinase [1]
  Mushroom Tyrosinase at 100 μM (% of control): 105.2% of control
D-dopachrome tautomerase
  D-Dopachrome Tautomerase at 100 μM (% of control): 64.9% of control

## CC(C)CC(C(=O)NC1CCCC1)N(C(=O)c1snc(C(N)=O)c1N)c1ccccc1 (stereo not drawn) [N5-(1-(cyclopentylcarbamoyl)-3-methylbutyl)-4-amino-N5-phenylisothiazole-3,5-dicarboxamide]
Mushroom tyrosinase [1]
  Mushroom Tyrosinase at 100 μM (% of control): 89.4% of control
D-dopachrome tautomerase
  D-Dopachrome Tautomerase at 100 μM (% of control): 69.2% of control

## NC(=O)c1nsc(C(=O)N(c2ccccc2)C(C(=O)NC2CCCC2)c2cccs2)c1N (stereo not drawn) [N5-((cyclopentylcarbamoyl)(thiophen-2-yl)methyl)-4-amino-N5-phenylisothiazole-3,5-dicarboxamide]
Mushroom tyrosinase [1]
  Mushroom Tyrosinase at 100 μM (% of control): 101.8% of control
D-dopachrome tautomerase
  D-Dopachrome Tautomerase at 100 μM (% of control): 66.8% of control

## CCc1ccc(O)cc1O [4-Ethyl Resorcinol, reference compound]
Mushroom tyrosinase [1]
  inhibition of mushroom tyrosinase (in words): potent inhibitor
D-dopachrome tautomerase
  activity in the DDT assay (in words): inactive
  D-Dopachrome Tautomerase at 100 μM (% of control): 100% of control
Mushroom tyrosinase [2]
  Mushroom Tyrosinase (% of control): 42.3% of control

## CCCC(C(=O)NC(C)(C)C)N(Cc1ccccc1Cl)C(=O)c1snc(C(N)=O)c1N (stereo not drawn) [N-5-(1-(tert-butylcarbamoyl)butyl)-N5-(2-chlorobenzyl)-4-aminoisothiazole-3,5-dicarboxamide]
Mushroom tyrosinase [1]
  Mushroom Tyrosinase at 100 μM (% of control): 102.5% of control
D-dopachrome tautomerase
  D-Dopachrome Tautomerase at 100 μM (% of control): 64.3% of control

## O=C(O[C@@H]1Cc2c(O)cc(O)cc2O[C@@H]1c1cc(O)c(=O)c2c(O)c(O)cc([C@H]3Oc4cc(O)cc(O)c4C[C@H]3OC(=O)c3cc(O)c(O)c(O)c3)c2c1)c1cc(O)c(O)c(O)c1 [Theaflavin Digallate]
[3]
  Reduction in Melanin: 26.6%

## CC(C)(C)NC(=O)C(c1ccc(F)cc1)N(C(=O)c1snc(C(N)=O)c1N)c1ccccc1 (stereo not drawn) [N5-((tert-butylcarbamoyl)(4-fluorophenyl)methyl)-4-amino-N5-phenylisothiazole-3,5-dicarboxamide]
Mushroom tyrosinase [1]
  Mushroom Tyrosinase at 100 μM (% of control): 101.9% of control
D-dopachrome tautomerase
  D-Dopachrome Tautomerase at 100 μM (% of control): 52.3% of control

## CCOC(=O)c1c(NC(=O)/C=C/C(=O)O)sc2c1CCC(C(C)(C)CC)C2 (stereo not drawn) [(E)-3-(3-(ethoxycarbonyl)-6-tert-pentyl-4,5,6,7-tetrahydrobenzo[b]thiophen-2-ylcarbamoyl)acrylic acid]
Mushroom tyrosinase [1]
  Mushroom Tyrosinase at 100 μM (% of control): 90.8% of control
D-dopachrome tautomerase
  D-Dopachrome Tautomerase at 100 μM (% of control): 14.9% of control

## CC(C)CC(C(=O)NC1CCCC1)N(C(=O)c1snc(C(N)=O)c1N)c1ccc(F)cc1 (stereo not drawn) [N5-(1-(cyclopentylcarbamoyl)-3-methylbutyl)-4-amino-N5-(4-fluorophenyl)isothiazole-3,5-dicarboxamide]
Mushroom tyrosinase [1]
  Mushroom Tyrosinase at 100 μM (% of control): 100.6% of control
D-dopachrome tautomerase
  D-Dopachrome Tautomerase at 100 μM (% of control): 65.7% of control

## CC(C)(C)NC(=O)C(c1c[nH]c2ccccc12)N(C(=O)c1snc(C(N)=O)c1N)c1ccccc1 (stereo not drawn) [N5-((tert-butylcarbamoyl)(1H-indol-3-yl)methyl)-4-amino-N5-phenylisothiazole-3,5-dicarboxamide]
Mushroom tyrosinase [1]
  Mushroom Tyrosinase at 100 μM (% of control): 96.0% of control
D-dopachrome tautomerase
  D-Dopachrome Tautomerase at 100 μM (% of control): 40.9% of control

## sodium isostearoyl lactylate
[3]
  Reduction in Melanin: 6.2%
D-dopachrome tautomerase
  pIC50: 4.84

## O=c1c(O)c(-c2ccc(O)cc2O)oc2cc(O)cc(O)c12 [Morin, 2-(2,4-dihydroxyphenyl)-3,5,7-4H-1-benzopyran-4-one]
[3]
  Reduction in Melanin: 7.2%
D-dopachrome tautomerase
  pIC50: 4.56

## CC(C)(C)NC(=O)C(c1ccc(F)cc1)N(C(=O)c1snc(C(N)=O)c1N)c1cccc(F)c1 (stereo not drawn) [N5-((tert-butylcarbamoyl)(4-fluorophenyl)methyl)-4-amino-N5-(3-fluorophenyl)isothiazole-3,5-dicarboxamide]
Mushroom tyrosinase [1]
  Mushroom Tyrosinase at 100 μM (% of control): 106.1% of control
D-dopachrome tautomerase
  D-Dopachrome Tautomerase at 100 μM (% of control): 48.0% of control

## CC(C)(C)C1CCc2c(sc(NC(=O)/C=C/C(=O)O)c2C#N)C1 (stereo not drawn) [(E)-3-(6-tert-butyl-3-cyano-4,5,6,7-tetrahydrobenzo[b]thiophen-2-ylcarbamoyl)acrylic acid]
Mushroom tyrosinase [1]
  Mushroom Tyrosinase at 100 μM (% of control): 88.2% of control
D-dopachrome tautomerase
  D-Dopachrome Tautomerase at 100 μM (% of control): 8.4% of control

## O=c1c(-c2cc(O)c(O)c(O)c2)coc2cc(O)c(O)c(O)c12 [Irigenol, 5,6,7-trihydroxy-3-(3,4,5-trihydroxyphenyl)-4H-1-benzopyran-4-one]
[3]
  Reduction in Melanin: 7.0%
D-dopachrome tautomerase
  pIC50: 4.43

## Oc1nc2cc(I)c(I)cc2o1 [5,6-diiodobenzo[d]oxazol-2-ol]
Mushroom tyrosinase [1]
  Mushroom Tyrosinase at 100 μM (% of control): 99.3% of control
D-dopachrome tautomerase
  D-Dopachrome Tautomerase at 100 μM (% of control): 56.1% of control

## CC(C)(C)NC(=O)C(c1ccc(F)cc1)N(Cc1ccccc1)C(=O)c1snc(C(N)=O)c1N (stereo not drawn) [N5-((tert-butylcarbamoyl)(4-fluorophenyl)methyl)-4-amino-N5-benzylisothiazole-3,5-dicarboxamide]
Mushroom tyrosinase [1]
  Mushroom Tyrosinase at 100 μM (% of control): 98.6% of control
D-dopachrome tautomerase
  D-Dopachrome Tautomerase at 100 μM (% of control): 69.9% of control

## CCCCC/C=C\C/C=C\C/C=C\C/C=C\CCCC(=O)O [arachidonic acid, reference compound]
D-dopachrome tautomerase; 75 μM final concentration, read-out: inhibition of DDT (positive control)
  inhibition at 75 µM: ~50%

## CCc1ccc(NC(=O)/C=C/C(=O)O)cc1 [(E)-3-(4-ethylphenylcarbamoyl)acrylic acid]
Mushroom tyrosinase [1]
  Mushroom Tyrosinase at 100 μM (% of control): 89.4% of control
D-dopachrome tautomerase
  D-Dopachrome Tautomerase at 100 μM (% of control): 40.5% of control

## O=C1C=CC(=O)c2c(O)cccc21 [Juglone, 5-hydroxy-1,4-naphthalenedione]
[3]
  Reduction in Melanin: 32.8%
D-dopachrome tautomerase
  pIC50: 4.83
